Measurements reported in patent US6896895B2, “Carotenoid esters, carotenoid-enriched feeds, and methods of pigmenting foods and foodstuffs” (DSM IP Assets B.V., priority 2000, dated 2005).

Assays:
[1] = test system: egg yolk; assay: Egg yolk colour: reflectance colorimetry and Roche Yolk Colour Fan; type: in vivo, laying hens (ISA Brown); conditions: egg yolk, laying hens, 5.0 mg/kg feed
Experimental: (§1) Pigmentation efficacy was assessed in egg yolk, in the back skin of the broiler carcass, and in broiler shanks by reflectance colorimetry accompanied by visual scoring (Roche Colour Fan). The deposition of the ethyl-β-apo-8′-carotenoate (control) and the other carotenoid esters was determined in egg yolk and in the broiler back skin. In addition, the carotenoid levels in plasma and abdominal fat were measured.
The trials were carried out following the standard experimental design used for egg yolk pigmentation trials at the Roche Research Center for Animal Nutrition (CRNA, F-68305 Village-Neuf, France). Each year in February the pigmentation trials are started with a new flock of layers. At the beginning of the trials the age of the laying hens (192 birds, type ‘ISA Brown’) were as follows:
(§2) Preceding the trials the hens were fed a low carotenoid basal diet (produced at the CRNA) without carotenoid supplementation for at least 28 days. During the trials, the control group received the low carotenoid basal diet containing less than 2 mg total xanthophylls per kg of feed. The other animals were fed this diet supplemented with the appropriate pigments for three weeks. The diet was given to the animals ad libitum in mash form. The hens had free access to tap water. Beside the unsupplemented control treatment, treatments were carried out involving the provision of supplemented feed, the results of these treatments being presented in Tables 7-9.
Egg yolk color was assessed as described by Steinberg, et al. (Arch. Geflügelk 64 (4), 180-187 (2000)). The yolks were manually separated from the whites of the eggs. The isolated yolks of three to six eggs were combined, weighed, and stirred with a glass rod until the color appeared homogeneous. The color hue was visually scored using the Roche Yolk Colour Fan (RYCF, version 1993). An aliquot of the pooled egg yolks was transferred into a glass cuvette yielding an approximately 2 cm thick layer. The color was then measured by means of a Dr. Lange Xeno Color LS 100 spectro-colorimeter with diffuse D65-illumination and a 8° viewing angle.
(§3) The color data were expressed as CIE L*a*b*-values including h*(hue) and C* (chroma). The values given in the tables per treatment and trial represent averages of color measurements of four egg yolk pools, ten broiler back skins, or ten broiler shanks (5 males and 5 females).

[2] = Carotenoid ester content and deposition rate in egg yolk of laying hens (HPLC); type: in vivo, laying hens (ISA Brown); conditions: egg yolk; for Deposition Rate Target Values % of Controls / Ethyl β-apo-8′-carotenoate Equivalents % of Controls: Table 8; for Deposition Rate % of Controls: Table 10
Experimental: as §1
Each year in February the pigmentation trials are started with a new flock of layers.
as §2, with “water.” for “water. Beside the unsupplemented control treatment, treatments were carried out involving the provision of supplemented feed, the results of these treatments being presented in Tables 7-9.”
Peaks were related to all-E- and Z-isomers of the various carotenoid esters by chromatography of heat-isomerized solutions of the respective reference substances in n-hexane. The HPLC system was calibrated with the all-E-isomer of ethyl β-apo-8′-carotenoate. The response factor of the various derivatives was deduced from that of ethyl β-apo-8′-carotenoate taking into account the respective molecular weight. The content of the Z-isomer fractions was calculated based on the response of the all-E-isomer and using a correction factor of 1.4 to account for the lower specific absorbance of the Z-isomers.
(§4) The HPLC-system for in-feed analysis was also used to quantify the carotenoid esters in egg yolk, broiler tissues, and broiler plasma, but the extraction procedure was different for the various matrices.
For the extraction of egg yolk, 10 g of pooled and homogenised yolk were mixed with 10 ml of demineralized water using a dispersion instrument (Polytron). 1.0 g of diluted egg yolk was introduced into a 10 ml test tube with 1.0 ml of demineralized water and 2.0 ml of ethanol, and the contents were mixed on a Vortex shaker. After addition of 4.0 ml of n-hexane, the mixture was further treated as described for plasma.

[3] = Carotenoid ester content in plasma, back skin and abdominal fat of broilers (HPLC); type: in vivo, broiler chickens (Ross 308, Ross 508); conditions: average over doses, Table 4
Experimental: as §1
(§5) The trials were carried out using chickens of the type Ross 308 (trials MC-24/98 and MC-02/99) and Ross 508 (trials MC-11/99, MC-16/99, MC-24/99, and MC-03/00) (Couvir de la Bohardière, F-49290 Saint Laurent de la Plaine). One-day old broiler chickens, separated by sex, were divided by weight into experimental groups of ten animals each and reared in floor pens littered with wood shavings. The chickens were fed a low carotenoid basal grower diet until day 22 (trials MC-24/98, MC-02/99, and MC-11/99) or until day 15 (trials MC-16/99, MC-24/99, and MC-03/00). The low carotenoid basal grower diet contained less than 2 mg total xanthophylls per kg of feed, and its composition is described in Table 2. For the subsequent experimental period of three weeks, the birds received the basal diet supplemented with an appropriate pigment. The feed was given in the form of crumbled pellets during the first week and as pellets thereafter. The animals had unrestricted access to feed and water. A given treatment involved one group of male and one group of female chickens. Each group of chickens was weighed at day 22 (trials MC-24/98, MC-02/99, and MC-11/99) or day 15 (trials MC-16/99, MC-24/99, and MC-03/00) and on day 43. On day 42, five chickens per group were selected at random, labelled, and blood samples were taken from the jugular vein. At the end of the experiment (day 44) the animals were slaughtered in a commercial slaughterhouse (Freyburger, Dannemarie, France). The following day, the color of the skin (hind back of carcasses) and the shanks of the labelled chicken were measured by reflectance colorimetry (Minolta CR 200 apparatus, CIE-Lab system). Samples of the dorsal skin and abdominal fat were obtained, pooled for each experimental group, and the carotenoid concentration was determined. The concentration of carotenoids in feed, plasma, skin, and abdominal fat was determined by standard procedures as described after Tables 1 and 2.
The content of the various carotenoid esters in feed was determined according to the method of Schierle, et al. (J. Schierle , N. Faccin, V. Riegert, Analytical Methods for Vitamins and Carotenoids in Feed, Revised supplement: Determination of Stabilized Apocarotenoic Ester and Canthaxanthin in Premixes and Feeds, Roche publication no. 50771 (1995), publicly available from. F. Hoffmann-La Roche Ltd., CH-4070 Basel). This method was modified in that the mobile phase of the normal-phase HPLC contained 0.5% instead of 7% acetone in n-hexane, improving the separation of the E/Z-isomers of the carotenoid esters. Peaks were related to all-E- and Z-isomers of the various carotenoid esters by chromatography of heat-isomerized solutions of the respective reference substances in n-hexane. The HPLC system was calibrated with the all-E-isomer of ethyl β-apo-8′-carotenoate. The response factor of the various derivatives was deduced from that of ethyl β-apo-8′-carotenoate taking into account the respective molecular weight. The content of the Z-isomer fractions was calculated based on the response of the all-E-isomer and using a correction factor of 1.4 to account for the lower specific absorbance of the Z-isomers.
as §4
For plasma extraction, 1.0 g of the well-mixed plasma sample was introduced into a 10 ml test tube with 1.0 ml of demineralized water and 4.0 ml of ethanol, and the contents mixed on a Vortex shaker. […]

[4] = test system: skin and shanks of broilers; assay: Reflectance colorimetry and visual classification of skin and shanks of broilers; type: in vivo, broiler chickens (Ross 308, Ross 508); design: key to Shanks Visual Classification / Skin Visual Classification: −; (+); +; ++ = good color; o = orange; conditions: dry carcasses, average over doses, Table 6
Experimental: as §1, §5
The color of broiler skin and shanks was measured using a tristimulus Minolta CR-300 Chromameter with diffuse D65-illumination and a 0° viewing angle. The color of the skin was read at three different points on the back of the dry broiler carcasses and average values of the triple measurements were recorded. The color of shanks was measured using single measurements at the ball between the toes.
as §3

Row | Analytical Content as Equivalent of Ethyl β-apo-8′-carotenoate in % of control Fat [3] | Analytical Content as Equivalent of Ethyl β-apo-8′-carotenoate in % of control Plasma [3] | Analytical Content as Equivalent of Ethyl β-apo-8′-carotenoate in % of control Skin [3] | Deposition Rate Target Values % of Controls ([2]; trial H-25/99, 5.0 mg/kg feed) | Ethyl β-apo-8′-carotenoate Equivalents % of Controls ([2]; trial H-25/99, 5.0 mg/kg feed) | Deposition Rate % of Controls ([2]; trial H-25/99, 5.0 mg/kg feed) | Compound | Shanks Chroma C*ab % of Controls [4] | Shanks Color Hue h*ab % of Controls [4] | Shanks Visual Classification [4] | Skin Chroma C*ab % of Controls [4] | Skin Color Hue h*ab % of Controls [4] | Skin Visual Classification [4] | Color Fan Value % of Controls ([1]; trial H-25/99, Table 8) | Chroma C*ab % of Controls ([1]; trial H-25/99, Table 10) | Color Fan Value % of Controls ([1]; trial H-25/99, Table 10) | Color Hue h*ab % of Controls ([1]; trial H-25/99, Table 10) | also measured
1 | 35% | 62% | 38% |  |  |  | CC(C=CC=C(C)C=CC1=C(C)CCCC1(C)C)=CC=CC=C(C)C=CC=C(C)C(=O)OCCC(C)C [(6), isoamyl beta-apo-8′-carotenoate] | 86% | 101% | (+) | 89% | 99% | (+) |  |  |  |  | Color Fan Value % of Controls ([1]; trial H-18/99, Table 8): 116%; Chroma C*ab % of Controls ([1]; trial H-18/99, Table 10): 105%; Color Fan Value % of Controls ([1]; trial H-18/99, Table 10): 116%; Color Hue h*ab % of Controls ([1]; trial H-18/99, Table 10): 101%; Deposition Rate Target Values % of Controls ([2]; trial H-18/99, 5.0 mg/kg feed): 90%; Ethyl β-apo-8′-carotenoate Equivalents % of Controls ([2]; trial H-18/99, 5.0 mg/kg feed): 80%; Deposition Rate % of Controls ([2]; trial H-18/99, 5.0 mg/kg feed): 90%
2 | 45% | 62% | 40% | 95% | 86% | 95% | CCC(C)COC(=O)C(C)=CC=CC(C)=CC=CC=C(C)C=CC=C(C)C=CC1=C(C)CCCC1(C)C (stereo not drawn) [(7), 2-methyl-butyl beta-apo-8′-carotenoate] | 85% | 101% | (+) | 80% | 94% | (+) | 108% | 87% | 108% | 106% | 
3 | 62% | 78% | 76% | 89% | 81% | 89% | CC(C=CC=C(C)C=CC1=C(C)CCCC1(C)C)=CC=CC=C(C)C=CC=C(C)C(=O)OCC(C)(C)C [(8), 2,2-dimethylpropyl beta-apo-8′-carotenoate] | 98% | 101% | (+) | 98% | 100% | (+) | 108% | 94% | 108% | 101% | 
4 | 45% | 59% | 55% | 87% | 77% | 87% | CCC(CC)COC(=O)C(C)=CC=CC(C)=CC=CC=C(C)C=CC=C(C)C=CC1=C(C)CCCC1(C)C [(9), 2-ethyl-1-butyl beta-apo-8′-carotenoate] | 92% | 101% | (+) | 82% | 101% | + | 101% | 99% | 101% | 92% | 

Row | Compound | Analytical Content as Equivalent of Ethyl β-apo-8′-carotenoate in % of control Fat [3] | Analytical Content as Equivalent of Ethyl β-apo-8′-carotenoate in % of control Plasma [3] | Analytical Content as Equivalent of Ethyl β-apo-8′-carotenoate in % of control Skin [3] | Deposition Rate Target Values % of Controls ([2]; trial H-25/99, 5.0 mg/kg feed) | Ethyl β-apo-8′-carotenoate Equivalents % of Controls ([2]; trial H-25/99, 5.0 mg/kg feed) | Deposition Rate % of Controls ([2]; trial H-25/99, 5.0 mg/kg feed) | Shanks Chroma C*ab % of Controls [4] | Shanks Color Hue h*ab % of Controls [4] | Shanks Visual Classification [4] | Skin Chroma C*ab % of Controls [4] | Skin Color Hue h*ab % of Controls [4] | Skin Visual Classification [4] | Color Fan Value % of Controls ([1]; trial H-25/99, Table 8) | Chroma C*ab % of Controls ([1]; trial H-25/99, Table 10) | Color Fan Value % of Controls ([1]; trial H-25/99, Table 10) | Color Hue h*ab % of Controls ([1]; trial H-25/99, Table 10) | also measured
5 | CCCC(C)COC(=O)C(C)=CC=CC(C)=CC=CC=C(C)C=CC=C(C)C=CC1=C(C)CCCC1(C)C (stereo not drawn) [(11), 2-methyl-1-pentyl beta-apo-8′-carotenoate] | 50% | 59% | 69% | 112% | 96% | 112% | 92% | 101% | (+) | 87% | 95% | + | 116% | 101% | 116% | 103% | 
